“And” between values parts separate entries of the source, which are not always exact repeats. Equal entries are not always repeated.
Experiments:
[1] = Ex vivo biodistribution of 177Lu-complexes in Wistar rats; details: for Biodistribution of radioactivity, Adipose tissue / Biodistribution of radioactivity, Adrenal gland / Biodistribution of radioactivity, Blood / Biodistribution of radioactivity, Brain / Biodistribution of radioactivity, Femur / Biodistribution of radioactivity, Harderian gland / Biodistribution of radioactivity, Heart / Biodistribution of radioactivity, Kidneys / Biodistribution of radioactivity, Liver / Biodistribution of radioactivity, Lung / Biodistribution of radioactivity, Muscle / Biodistribution of radioactivity, Pancreas / Biodistribution of radioactivity, Spleen / Biodistribution of radioactivity, Testes / Biodistribution of radioactivity, Thymus: i.v.
Description: (§1) The experiments were realized corresponding to the German animal welfare regulations and institutional guidelines and with the permission of the local animal research committee at the Landesdirektion, Dresden. All experimental procedures are following the guidelines of the European Convention for the Protection of Vertebrate Animals used for Experimental and other Scientific Purposes (ETS No. 123). Male Wistar rats weighing 157.69 ± 17.10 g (mean ± SD, N = 35) were purchased from Unilever (HsdCpb:WU, Harlan Winkelmann, Borchen, Germany). Anesthetization was initiated and maintained by desflurane, and animals were put in the supine position and placed on a heating pad to maintain body temperature. A needle catheter was used for administration of the tracers in the tail vein. A second catheter was introduced into the right femoral artery for the extraction of blood samples for metabolite analysis, which was routinely done during SPECT/CT measurements.
The male Wistar rats received a short-term anesthetization by desflurane inhalation. Mean activities of 2.36 ± 0.27 MBq/kg of the ^177Lu-labelled tracers in isotonic saline were injected in a volume of 0.5 mL in the tail vein, with the following specific details: [^177Lu]citrate: 2.56 ± 0.07 MBq/kg, 128.58 body weight (BW, g), n = 4 (g); [^177Lu]BPAMD: 2.33 ± 0.11 MBq/kg, 159.41 BW (g), n = 4 (g); [^177Lu]BPAPD: 2.58 ± 0.24 MBq/kg, 156.38 BW (g), n = 4 (g); [^177Lu]BPPED: 2.27 ± 0.25 MBq/kg, 153.43 BW (g), n = 4 (g); [^177Lu]NO2AP^BP: 2.52 ± 0.25 MBq/kg, 173.82 BW (g), n = 4 (g); [^177Lu]DOTA(M^BP)2: 1.80 ± 0.10 MBq/kg, 181.64 BW (g), n = 4 (g); [^177Lu]DO2A(P^BP)2: 2.46 ± 0.15 MBq/kg, 150.60 BW (g), n = 4 (g). The compounds [^177Lu]DOTA(M^BP)2, [^177Lu]BPPED, and [^177Lu]BPAMD were further chosen for a biodistribution study after 8 days p.i. A mean activity of 19.0 ± 2.5 MBq/kg was injected. Animals were sacrificed after 5 min, 60 min, and 8 days p.i. Organs of interest were excised rapidly and weighed, and the ^177Lu activity was determined with a Wallac WIZARD automatic gamma counter (PerkinElmer, Germany) and decay corrected. The distribution data are expressed in %ID or are normalized to the BW as standard uptake value (SUV), which was calculated with the formula: SUV = (activity per g tissue)/(injected activity) × BW. The skeleton weight was calculated using the following: skeleton weight = 9.66 + 0.0355 × BW, and the total activities associated with the skeleton were calculated by using the activity concentration in the femur and the total skeleton weight.

[2] = Metabolite analysis and in vivo stability, arterial blood and urine samples; parameters: species or system Wistar rats
Description: as §1
Arterial blood plasma samples were taken during SPECT/CT examinations after 1, 3, 5, 10, 20, 30, 60, and 120 min. p.i., and the in vivo metabolism of [^177Lu]BPAMD, [^177Lu]BPAPD, [^177Lu]BPPED, [^177Lu]NO2AP^BP, [^177Lu]DOTA(M^BP)2, and [^177Lu]DO2A(P^BP)2 was analyzed. Plasma was separated by centrifugation (3 min, 11,000×g) followed by precipitation of the plasma proteins with ice-cold methanol (1.5 parts per 1 part plasma) and centrifugation (3 min, 11,000×g). The supernatants were analyzed by radio-TLC and HPLC using the abovementioned methods for quality control. Additionally, urine samples were treated in the same way prior radio-TLC and radio-HPLC analysis.

[3] = 5 min p.i., mean of four animals
[4] = 60 min p.i., mean of four animals
[5] = 8 days p.i., mean for five animals

Ratio Bone/Adipose tissue ([1]; 5 min p.i.): 17.3 | Ratio Bone/Adrenal gland ([1]; 5 min p.i.): 5.9 | Ratio Bone/Blood ([1]; 5 min p.i.): 3.2 | Ratio Bone/Brain ([1]; 5 min p.i.): 104.0 | Ratio Bone/Harderian gland ([1]; 5 min p.i.): 10.4 | Ratio Bone/Heart ([1]; 5 min p.i.): 8.0 | Ratio Bone/Kidneys ([1]; 5 min p.i.): 1.3 | Ratio Bone/Liver ([1]; 5 min p.i.): 8.7 | Ratio Bone/Lung ([1]; 5 min p.i.): 5.5 | Ratio Bone/Muscle ([1]; 5 min p.i.): 17.3 | Ratio Bone/Pancreas ([1]; 5 min p.i.): 11.2 | Ratio Bone/Spleen ([1]; 5 min p.i.): 10.7 | Ratio Bone/Testes ([1]; 5 min p.i.): 11.6 | Ratio Bone/Thymus ([1]; 5 min p.i.): 10.9 | Biodistribution of radioactivity, Adipose tissue [1, 3]: 0.24 SUV | Biodistribution of radioactivity, Adrenal gland [1, 3]: 0.70 SUV | Biodistribution of radioactivity, Blood [1, 3]: 1.30 SUV | Biodistribution of radioactivity, Brain [1, 3]: 0.04 SUV | Biodistribution of radioactivity, Femur [1, 3]: 4.16 SUV | Biodistribution of radioactivity, Harderian gland [1, 3]: 0.40 SUV | Biodistribution of radioactivity, Heart [1, 3]: 0.52 SUV | Biodistribution of radioactivity, Kidneys [1, 3]: 3.09 SUV | Biodistribution of radioactivity, Liver [1, 3]: 0.48 SUV | Biodistribution of radioactivity, Lung [1, 3]: 0.75 SUV | Biodistribution of radioactivity, Muscle [1, 3]: 0.24 SUV | Biodistribution of radioactivity, Pancreas [1, 3]: 0.37 SUV | Biodistribution of radioactivity, Spleen [1, 3]: 0.39 SUV | Biodistribution of radioactivity, Testes [1, 3]: 0.36 SUV | Biodistribution of radioactivity, Thymus [1, 3]: 0.38 SUV | Ratio Bone/Adipose tissue ([1]; 60 min p.i.): 269.7 | Ratio Bone/Adrenal gland ([1]; 60 min p.i.): 72.5 | Ratio Bone/Blood ([1]; 60 min p.i.): 92.9 | Ratio Bone/Brain ([1]; 60 min p.i.): 419.9 | Ratio Bone/Harderian gland ([1]; 60 min p.i.): 36.4 | Ratio Bone/Heart ([1]; 60 min p.i.): 141.1 | Ratio Bone/Kidneys ([1]; 60 min p.i.): 14.9 | Ratio Bone/Liver ([1]; 60 min p.i.): 42.3 | Ratio Bone/Lung ([1]; 60 min p.i.): 67.5 | Ratio Bone/Muscle ([1]; 60 min p.i.): 355.8 | Ratio Bone/Pancreas ([1]; 60 min p.i.): 181.6 | Ratio Bone/Spleen ([1]; 60 min p.i.): 41.0 | Ratio Bone/Testes ([1]; 60 min p.i.): 185.1 | Ratio Bone/Thymus ([1]; 60 min p.i.): 212.0 | Biodistribution of radioactivity, Adipose tissue [1, 4]: 0.02 SUV | Biodistribution of radioactivity, Adrenal gland [1, 4]: 0.08 SUV | Biodistribution of radioactivity, Blood [1, 4]: 0.06 SUV | Biodistribution of radioactivity, Brain [1, 4]: 0.01 SUV | Biodistribution of radioactivity, Femur [1, 4]: 5.67 ± 0.10 SUV and 5.67 SUV | Biodistribution of radioactivity, Harderian gland [1, 4]: 0.16 SUV | Biodistribution of radioactivity, Heart [1, 4]: 0.04 SUV | Biodistribution of radioactivity, Kidneys [1, 4]: 0.38 SUV | Biodistribution of radioactivity, Liver [1, 4]: 0.13 SUV | Biodistribution of radioactivity, Lung [1, 4]: 0.08 SUV | Biodistribution of radioactivity, Muscle [1, 4]: 0.02 SUV | Biodistribution of radioactivity, Pancreas [1, 4]: 0.03 SUV | Biodistribution of radioactivity, Spleen [1, 4]: 0.14 SUV | Biodistribution of radioactivity, Testes [1, 4]: 0.03 SUV | Biodistribution of radioactivity, Thymus [1, 4]: 0.03 SUV | Ratio Bone/Adipose tissue ([1]; 8 days p.i.): 1231 | Ratio Bone/Adrenal gland ([1]; 8 days p.i.): 159 | Ratio Bone/Blood ([1]; 8 days p.i.): 5123 | Ratio Bone/Brain ([1]; 8 days p.i.): 365 | Ratio Bone/Harderian gland ([1]; 8 days p.i.): 46 | Ratio Bone/Heart ([1]; 8 days p.i.): 653 | Ratio Bone/Kidneys ([1]; 8 days p.i.): 59 | Ratio Bone/Liver ([1]; 8 days p.i.): 189 | Ratio Bone/Lung ([1]; 8 days p.i.): 637 | Ratio Bone/Muscle ([1]; 8 days p.i.): 192 | Ratio Bone/Pancreas ([1]; 8 days p.i.): 1104 | Ratio Bone/Spleen ([1]; 8 days p.i.): 246 | Ratio Bone/Testes ([1]; 8 days p.i.): 1214 | Ratio Bone/Thymus ([1]; 8 days p.i.): 933 | Biodistribution of radioactivity, Adipose tissue [1, 5]: 0.004 SUV | Biodistribution of radioactivity, Adrenal gland [1, 5]: 0.033 SUV | Biodistribution of radioactivity, Blood [1, 5]: 0.001 SUV | Biodistribution of radioactivity, Brain [1, 5]: 0.014 SUV | Biodistribution of radioactivity, Femur [1, 5]: 5.197 SUV | Biodistribution of radioactivity, Harderian gland [1, 5]: 0.113 SUV | Biodistribution of radioactivity, Heart [1, 5]: 0.008 SUV | Biodistribution of radioactivity, Kidneys [1, 5]: 0.088 SUV | Biodistribution of radioactivity, Liver [1, 5]: 0.027 SUV | Biodistribution of radioactivity, Lung [1, 5]: 0.008 SUV | Biodistribution of radioactivity, Muscle [1, 5]: 0.027 SUV | Biodistribution of radioactivity, Pancreas [1, 5]: 0.005 SUV | Biodistribution of radioactivity, Spleen [1, 5]: 0.021 SUV | Biodistribution of radioactivity, Testes [1, 5]: 0.004 SUV | Biodistribution of radioactivity, Thymus [1, 5]: 0.006 SUV | Total skeletal retention ([1]; 8 days p.i., calculated from femur activity concentration and total skeleton weight): constant over 8 days | Total skeleton retention ([1]; after 60 min, calculated from femur activity concentration and total skeleton weight): 56.3 ± 6.7 %ID | Blood half-life of the slow component (t1/2(β)) ([2]; arterial blood, single intravenous injection): 18.7 min | Metabolization in blood samples (radio-HPLC and TLC) ([2]; within a period of 120 min): no evidence of any metabolization
SMILES: O=C(O)CN1CCN(CC(=O)O)CCN(CP(=O)(O)CC(P(=O)(O)O)P(=O)(O)O)CCN(CC(=O)O)CC1 [[^177Lu]BPPED, metal not drawn]
